Assay results: paper PMC2810227, “3-O-Methylfunicone, a Selective Inhibitor of Mammalian Y-Family DNA Polymerases from an Australian Sea Salt Fungal Strain” (Marine Drugs, 2009)

Legend:
Type in all cases: biochemical
Settings in all cases: 100 μM
fruit fly pol δ = biological target: T1, fruit fly pol δ (Drosophila melanogaster, UniProt P54358); assay: DNA polymerase assay, insect pol δ
T1 construct: purified from early embryos of Drosophila melanogaster; from tissue; host or cells: early embryos of Drosophila melanogaster

calf primase of pol α = assay: Primase assay
Procedure: (§1) The activities of calf primase of pol α, human telomerase, T7 RNA polymerase, mouse IMP dehydrogenase, human DNA topoisomerases I and II, T4 polynucleotide kinase and bovine DNase I were measured in standard assays according to the manufacturer’s specifications, as described by Tamiya-Koizumi et al., Oda et al., Nakayama et al., Mizushina et al., Ishimaru et al., Soltis et al. and Lu et al., respectively.

[1] = biological target: T2, human immunodeficiency virus type-1 (HIV-1) reverse transcriptase (Human immunodeficiency virus type 1 group M subtype B, UniProt P03366); assay: HIV-1 reverse transcriptase assay
T2 construct: HIV-1 reverse transcriptase (recombinant); purchased Worthington Biochemical Corp. (Freehold, NJ, USA)
Excerpt: (§2) Pol α was purified from calf thymus by immuno-affinity column chromatography, as described by Tamai et al.. Recombinant rat pol β was purified from E. coli JMpβ5, as described by Date et al.. The human pol γ catalytic gene was cloned into pFastBac. Histidine-tagged enzyme was expressed using the BAC-TO-BAC HT Baculovirus Expression System according to the supplier’s manual (Life Technologies, MD, USA) and purified using ProBoundresin (Invitrogen Japan, Tokyo, Japan). Human pols δ and ɛ were purified by nuclear fractionation of human peripheral blood cancer cells (Molt-4) using the second subunit of pols δ and ɛ-conjugated affinity column chromatography, respectively. A truncated form of human pol η (residues 1–511) tagged with His6 at its C-terminal was expressed in E. coli cells and purified as described by Kusumoto et al.. A recombinant mouse pol ι tagged with His6 at its C-terminal was expressed and purified by Ni-NTA column chromatography as described elsewhere (Masutani et al., in preparation). […]
The compounds were dissolved in distilled dimethyl sulfoxide (DMSO) at various concentrations and sonicated for 30 sec. […] Activity without the inhibitor was considered 100%, and the remaining activity at each concentration of the inhibitor was determined relative to this value. […]

T7 RNA polymerase = biological target: T3, T7 RNA polymerase (Escherichia phage T7, UniProt P00573); assay: T7 RNA polymerase assay
T3 construct: purchased Takara Bio (Tokyo, Japan)
Excerpt: as §2, with “al..” for “al.. A recombinant mouse pol ι tagged with His6 at its C-terminal was expressed and purified by Ni-NTA column chromatography as described elsewhere (Masutani et al., in preparation).”
as §1

T1 sequence (P54358 whole entry): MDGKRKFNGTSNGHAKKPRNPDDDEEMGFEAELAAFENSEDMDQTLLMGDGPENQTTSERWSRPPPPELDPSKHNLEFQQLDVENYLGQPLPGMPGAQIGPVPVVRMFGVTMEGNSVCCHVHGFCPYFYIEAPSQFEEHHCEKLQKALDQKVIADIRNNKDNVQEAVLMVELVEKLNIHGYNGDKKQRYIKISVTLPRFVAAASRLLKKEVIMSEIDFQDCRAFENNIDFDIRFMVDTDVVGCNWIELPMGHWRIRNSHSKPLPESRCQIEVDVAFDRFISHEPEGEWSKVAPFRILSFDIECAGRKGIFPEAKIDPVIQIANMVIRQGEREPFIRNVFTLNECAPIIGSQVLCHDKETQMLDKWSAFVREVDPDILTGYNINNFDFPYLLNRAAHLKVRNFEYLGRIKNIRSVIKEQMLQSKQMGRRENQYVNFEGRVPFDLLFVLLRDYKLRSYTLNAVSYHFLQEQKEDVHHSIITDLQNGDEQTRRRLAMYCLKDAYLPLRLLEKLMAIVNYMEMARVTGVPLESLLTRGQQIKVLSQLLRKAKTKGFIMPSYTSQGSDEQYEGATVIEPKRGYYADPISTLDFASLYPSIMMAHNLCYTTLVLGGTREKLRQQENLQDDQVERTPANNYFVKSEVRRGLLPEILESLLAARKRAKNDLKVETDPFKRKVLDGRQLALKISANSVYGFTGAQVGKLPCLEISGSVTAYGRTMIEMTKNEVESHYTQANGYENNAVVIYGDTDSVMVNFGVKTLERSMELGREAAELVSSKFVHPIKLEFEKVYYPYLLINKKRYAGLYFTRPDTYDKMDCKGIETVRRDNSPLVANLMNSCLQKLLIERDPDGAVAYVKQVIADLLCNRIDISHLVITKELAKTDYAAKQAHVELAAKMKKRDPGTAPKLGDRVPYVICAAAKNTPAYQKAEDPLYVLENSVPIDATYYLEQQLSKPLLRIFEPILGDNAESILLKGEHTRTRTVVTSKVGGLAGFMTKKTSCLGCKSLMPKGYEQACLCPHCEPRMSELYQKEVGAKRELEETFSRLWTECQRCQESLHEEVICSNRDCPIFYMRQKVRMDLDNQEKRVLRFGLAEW
T3 sequence (P00573 whole entry): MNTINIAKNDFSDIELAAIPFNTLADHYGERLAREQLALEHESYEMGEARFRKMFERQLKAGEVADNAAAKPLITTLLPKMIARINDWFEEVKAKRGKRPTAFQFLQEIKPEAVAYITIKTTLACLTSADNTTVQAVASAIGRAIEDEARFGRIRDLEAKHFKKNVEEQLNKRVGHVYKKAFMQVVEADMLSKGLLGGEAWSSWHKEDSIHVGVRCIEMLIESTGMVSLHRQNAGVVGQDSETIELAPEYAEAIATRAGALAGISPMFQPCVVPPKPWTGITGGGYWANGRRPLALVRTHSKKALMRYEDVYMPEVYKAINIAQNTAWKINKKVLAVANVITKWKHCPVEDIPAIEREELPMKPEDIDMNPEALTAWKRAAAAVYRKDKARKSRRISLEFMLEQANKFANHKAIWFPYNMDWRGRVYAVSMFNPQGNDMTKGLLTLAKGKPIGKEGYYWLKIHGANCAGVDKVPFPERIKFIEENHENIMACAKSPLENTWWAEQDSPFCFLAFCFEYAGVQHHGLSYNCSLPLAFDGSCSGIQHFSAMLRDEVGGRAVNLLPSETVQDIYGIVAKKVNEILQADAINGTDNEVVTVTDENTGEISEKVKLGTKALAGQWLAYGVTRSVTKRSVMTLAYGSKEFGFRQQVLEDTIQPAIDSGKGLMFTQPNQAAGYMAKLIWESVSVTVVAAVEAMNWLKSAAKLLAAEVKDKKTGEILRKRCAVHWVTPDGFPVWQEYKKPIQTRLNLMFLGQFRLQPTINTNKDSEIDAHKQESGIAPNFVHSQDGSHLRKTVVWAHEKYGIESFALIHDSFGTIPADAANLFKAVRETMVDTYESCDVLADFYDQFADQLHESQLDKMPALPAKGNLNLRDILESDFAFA

C/C=C/c1occ(C(=O)c2c(OC)cc(OC)cc2C(=O)OC)c(=O)c1OC [compound 1, 3-O-methylfunicone]
effect on fruit fly pol δ activity (fruit fly pol δ): hardly influenced
effect on calf primase of pol α activity (calf primase of pol α): did not influence
effect on HIV-1 reverse transcriptase activity [1]: did not influence
effect on T7 RNA polymerase activity (T7 RNA polymerase): did not influence
